In patent US9050330B2, “Method, composition and kit for treating frequent headaches” (priority 2012, dated 2015):

Assays:
[1] = system: sphenopalatine ganglion; conditions: cited from earlier work; for duration of anesthesia provided to the nerve structure: long-acting local anesthetics in SPGB
[2] = system: tension headaches and migraines; experiment: Earlier treatment of Patient 1 (tension headaches and migraines); type: in vivo, human; conditions: Patient 1, before the composition
Text: This patient was a person who experienced tension headaches and migraines. The pain was acute producing nauseas and vomits.

Structure (SMILES)	outcome of earlier treatment [2]	duration of anesthesia provided to the nerve structure [1]	other results
CCN(CC)CC(=O)Nc1c(C)cccc1C [lidocaine]	–	–	period for which head pain is decreased (equal to the duration of the analgesia) ([1]; shorter-acting local anesthetic in SPGB): less than an hour
COc1ccc2cc(CCC(C)=O)ccc2c1 [relafen]	without success	–	–
CCCCN1CCCCC1C(=O)Nc1c(C)cccc1C (centres unmarked) [bupivacaine]	–	at least about an hour	–
Cc1ccccc1C(OCCN(C)C)c1ccccc1 (centres unmarked) [norflex]	without success	–	–
CCCN1CCCC[C@H]1C(=O)Nc1c(C)cccc1C [ropivacaine]	–	at least about an hour	–
